Columns and labels:
hiPSC line 19-3 = assay: short-term 6-day hiPSC growth assay (media variable optimization); type: cell-based, human; details: for necessity of component for hiPSC growth: short-term assay, FIG. 2; for concentrations showing a similar effect on growth rate: FGF2-G3 compared with FGF2-K128N; for optimal / sufficient concentration for growth: one passage growth assay, FIG. 2E-F
From the text: FIG. 2A-F. Optimization of Basic Human Pluripotent Stem Cell Medium Constituents with a Short-Term Growth Assay. Results are normalized to initial medium component concentrations shown with a dark gray bar, optimizations were completed using short-term 6-day growth assay. […] (A) Comparison of the effect of recombinant human IGF1 LR3 (n=3) and recombinant human insulin (n=18-22) concentrations on relative growth. (B) L-ascorbic acid 2-phosphate (n=19-27). (C) Transferrin (n=2-20). (D) Sodium selenite (n=3-20). (E) FGF2-K128N (n=3-12). (F) TGFb1 (n=20-25). n=full experimental replicates, unpaired Student's T-test, *P≤0.05, **P≤0.01, ***P≤0.005, ****P≤0.0001, n.s.=not significant.
FIG. 3A-H. Optimization of Additional Human Pluripotent Stem Cell Medium Constituents in a Short-Term Assay. E8 medium component concentrations are shown with a dark gray bar, optimizations were completed using a simple 6-day growth assay. […] (A) Comparison of the suitability of recombinant transferrin (10 μg ml−1) to support clonal growth with and without ROCK1/2 inhibition using Y27632 (10 μM) during the first 24 h after passage (n=3). (B) Comparison of two common ROCK1/2 inhibitors only during first 24 h after passage on relative growth (n>5). (C) Comparison of the effect of the addition of non-essential amino acids (NEAA) and chemically defined lipids (n=5) on relative growth. (D) Fatty acid-free albumin (n=4). (E) Sodium bicarbonate (n=5). (F) pH (n=9). (G) Osmolarity (n=8). (H) FGF2-G3 (n=3). n=full experimental replicates, unpaired Student's T-test, *P≤0.05, **P≤0.01, ***P≤0.005, ****P≤0.0001, n.s.=not significant.
The hiPSC line 19-3 was dissociated with TrypLE (Gibco™, 12604-013) for 3 min at 37° C. and cells were resuspended in DMEM/F12, transferred to a 15 ml conical tube (Falcon) and centrifuged at 200×g for 3 min (Sorvall ST40). The pellet was resuspended in DMEM/F12, diluted to 1×10^5 cells per ml and 10,000 cells were plated per well in Matrigel® (1:800)-coated 12-well plates (Greiner) in the medium to be tested along with 2 μM thiazovivin for the first 24 h. Media were changed daily and cells were grown for 6 days. This lower than normal seeding density was used to allow the discovery of factors only detectable under more extreme conditions and therefore provide data on the robustness to the formulation.

hiPSC = assay: long-term 5-passage, 4-day hiPSC growth assay; type: cell-based, human; details: for confirmed concentration in long-term assay: FIG. 5A-C; for necessity of component for hiPSC culture: long-term assay, removal of dispensable components reduces growth rate; for concentration confirmed / usable / required in long-term assay: FIG. 5D-L
From the text: FIG. 5A-P. Optimization of B8 Medium Constituents with a Long-Term Growth Assay. Results are normalized to initial medium component concentrations shown with a dark gray bar, optimizations were completed using long-term 5-passage, 4-day growth assay. Comparison of the effect of (A) recombinant human insulin concentration on relative growth (n=10). (B) L-ascorbic acid 2-phosphate (n=10). (C) Recombinant transferrin (n=10). (D) Sodium selenite (n=5). (E) In-house made FGF2-G3 (n=6). (G) NODAL (n=5). (H) Activin A (n=5). (I) In-house made TGFb3 after 9 passages compared to commercial TGFb1 (n=9). (J) Addition of NRG1 to 40 ng ml−1 FGF2-G3 (n>5). (K) Final B8 formula. n=full experimental replicates, unpaired Student's T-test, *P≤0.05, **P≤0.01, ***P≤0.005, ****P≤0.0001, n.s.=not significant.
Our initial short-term experiments provided preliminary optimizations, yet we were aware from previous experiments that some variables, such as the elimination of TGFβ1, had minimal effects short-term and would only have detectable negative effects in long-term experiments. Thus the effectiveness of a long-term assay was evaluated with the following assay protocol: […]

[1] = cited from earlier work
phospho-ERK = assay: stimulation of phospho-ERK in FGF2-starved hiPSC by media stored at 37° C. (Western blot); type: cell-based, human
Experimental: FIG. 7A-E. Qualification of B8 as Suitable for hiPSC Generation and Culture. […] (B) Expression of pluripotent markers in a variety of B8-derived hiPSC lines. (C) Example G-banding karyotype analysis of four hiPSC lines derived in B8 from blood. (D) hiPSC growth at low seeding densities in B8 compared to E8 (n=8). (E) Assessment of stimulation of phospho-ERK after media had been stored at 37° C. for 2 or 7 days, comparing in-house generated FGF2-G3 to a commercial FGF2 (Peprotech). hiPSC were starved of FGF2 for 24 h then treated with the indicated media for 1 h before collection for Western blot. Total ERK was used as a loading control.
Stock lysis buffer was prepared as 150 mM NaCl, 20 mM Tris pH 7.5, 1 mM EDTA, 1 mM EGTA, and 1% Triton X-100 and stored at 4° C. Fresh complete lysis buffer was prepared with final concentration of 1× Protease Inhibitor (Roche, 5892791001), 1× Phosphatase Inhibitor Cocktail 2 (P5726, Sigma), 1× Phosphatase Inhibitor Cocktail 3 (Sigma, P0044), 2 mM PMSF (Sigma, P7626), and 1% SDS Solution (Fisher Scientific, BP2436200). hiPSC were starved using B8 without FGF2 for 24 hours, then treated with media containing the corresponding FGF2 for 1 h. Media was then removed, and cells were washed once with DPBS, harvested with 0.5 mM EDTA in DPBS, and transferred into tubes. Samples were pelleted by centrifugation at 500×g for 3 minutes and the supernatant was discarded. The pellet was resuspend in 150 μl complete lysis buffer and incubated on ice for 30 min. Clear lysates were collected by centrifugation at 10,000×g for 10 min at 4° C. The protein concentration was measured with Qubit Protein Assay Kit (Invitrogen, Q33211) and Qubit 4 fluorometer. Lysates was stored in −80° C. before use. 10 μg of sample was prepared with NuPAGE™ LDS Sample Buffer (Invitrogen, B0007) and NuPAGE™ Reducing Agent (Invitrogen, B0009) according to the manufacturer's instructions and run on NuPAGE™ 10% Bis-Tris Gel (Invitrogen, NP0302BOX) and Mini Gel Tank system (Invitrogen, A25977) with Bolt MES SDS Running Buffer (Invitrogen, B000202) at 100 V for 1 h. […]

O=C1O[C@H]([C@@H](O)CO)C(O)=C1OP(=O)(O)O.[Na+].[Na+].[Na+] [Ascorbic acid 2-phosphate, L-ascorbic acid 2-phosphate trisodium salt]
necessity of component for hiPSC growth (hiPSC line 19-3): not essential | confirmed concentration in long-term assay (hiPSC): 200 µg/mL | necessity of component for hiPSC culture (hiPSC): dispensable

O=C([O-])O.[Na+] [sodium bicarbonate]
optimal concentration for growth (hiPSC line 19-3; FIG. 3E): 29 mM

O=[Se](O)O [sodium selenite]
concentrations that did not significantly affect growth (hiPSC line 19-3; FIG. 2D): 2 to 200 ng/mL | concentration confirmed / usable / required in long-term assay (hiPSC): 20 ng/mL

O=C(NCc1ccccc1)c1csc(Nc2ccncn2)n1 [thiazovivin, reference compound]
effect on growth vs 10 μM Y27632 (hiPSC line 19-3; 2 μM for the first 24 h after passage, FIG. 3B): marginally, though not significantly, improved growth

FGF2-K128N: recombinant human FGF2 with K128N substitution, made in-house in E. coli (SEQ ID NO: 4/14)
concentrations showing a similar effect on growth rate (hiPSC line 19-3; FIG. 3H): 100 ng/mL | optimal / sufficient concentration for growth (hiPSC line 19-3): ≥ 40 ng/mL

FGF2: fibroblast growth factor 2, human FGF2 (SEQ ID NO: 3)
necessity of component for hiPSC growth (hiPSC line 19-3): essential

IGF1 LR3: recombinant human IGF1 LR3 (Sigma, 91590C)
level of IGF1 LR3 able to replace insulin (hiPSC line 19-3; FIG. 2A, not cost-effective): ≥ 1 µg/mL

TGFβ1: recombinant human TGFβ1 (112 amino acid, HEK293-derived, Peprotech)
optimal / sufficient concentration for growth (hiPSC line 19-3): ≥ 0.5 ng/mL | concentration confirmed / usable / required in long-term assay (hiPSC): 0.1 ng/mL | necessity of component for hiPSC culture (hiPSC): essential

TGFβ1m: TGFβ1 with C77S point mutation, unable to form dimers, produced in E. coli
potency relative to TGFβ1 (fold less potent) ([1]; monomeric C77S protein, predicted (Kim et al., 2015)): ~20 fold

TGFβ3: 112 amino acid TGFβ3 (SEQ ID NO: 16) made in E. coli as thioredoxin fusion protein
concentration confirmed / usable / required in long-term assay (hiPSC): 0.1 ng/mL | potency relative to TGFβ1 ([1]; Huang et al., 2014): more potent than TGFβ1

Transferrin: Oryza sativa-derived recombinant human transferrin (Optiferrin, InVitria)
concentration enhancing growth / giving optimal growth (hiPSC line 19-3; FIG. 2B-C): 20 µg/mL | necessity of component for hiPSC growth (hiPSC line 19-3): not essential | confirmed concentration in long-term assay (hiPSC): 20 µg/mL | necessity of component for hiPSC culture (hiPSC): dispensable

commercial FGF2: a commercial FGF2 (Peprotech) [reference compound]
pERK stimulation after storage of media at 37° C. (phospho-ERK; 2 days at 37° C.): not capable of stimulating pERK

insulin: E. coli-derived recombinant human insulin (Gibco)
concentration up to which effect on growth was dose-dependent (hiPSC line 19-3; FIG. 2A): up to 20 μg ml^−1 | necessity of component for hiPSC growth (hiPSC line 19-3): essential | confirmed concentration in long-term assay (hiPSC): 20 µg/mL

B1: Activin A: Activin/NODAL/TGFβ1 signaling source (protein, UniProt P08476 311-426, looked up)
Inhibin beta A chain: GLECDGKVNICCKKQFFVSFKDIGWNDWIIAPSGYHANYCEGECPSHIAGTSGSSLSFHSTVINHYRMRGHSPFANLKSCCVPTKLRPMSMLYYDDGQNIIKKDIQNMIVEECGCS
modifications: Inhibin beta A chain
effect on growth in combination with TGFβ1 (hiPSC; FIG. 5I): negative effect on growth | suitability to maintain growth (hiPSC; alone, FIG. 5H): not suitable to maintain growth to the same level as TGFβ1 | support of growth at very low doses (hiPSC; very low doses): could support growth, albeit to a lesser extent than TGFβ1

B2: FGF2-G3: thermostable FGF2 with nine point mutations, made in-house in E. coli (SEQ ID NO: 15) (protein)
chain: AAGSITTLPALPEDGGSGAFPPGHFKDPKLLYCKNGGFFLRIHPDGRVDGTRDKSDPFIKLQLQAEERGVVSIKGVCANRYLAMKEDGRLYAIKNVTDECFFFERLEENNYNTYRSRKYPSWYVALKRTGQYKLGSKTGPGQKAILFLPMSAKS
concentrations showing a similar effect on growth rate (hiPSC line 19-3; FIG. 3H): 5 ng/mL | relative potency on growth rate (hiPSC line 19-3; FIG. 3H): more potent than FGF2-K128N | concentration confirmed / usable / required in long-term assay (hiPSC): 40 ng/mL | stability (pERK stimulation) after storage of media at 37° C. (phospho-ERK; 7 days at 37° C.): stable

B3: NRG1: 65 amino acid truncated neuregulin 1 containing just the EGF domain (SEQ ID NO: 17) (protein)
chain: SHLVKCAEKEKTFCVNGGECFMVKDLSNPSRYLCKCPNEFTGDRCQNYVMASFYKHLGIEFMEAE
enhancement of growth over FGF2-G3 alone (hiPSC; all tested levels of NRG1 added to 40 ng ml−1 FGF2-G3): > 15% | necessity of component for hiPSC culture (hiPSC): dispensable | support of growth in the absence of FGF2 (hiPSC; no FGF2): not able to support growth

B4: NODAL: Activin/NODAL/TGFβ1 signaling source (protein, UniProt Q96S42 238-347, looked up)
Nodal homolog: HHLPDRSQLCRKVKFQVDFNLIGWGSWIIYPKQYNAYRCEGECPNPVGEEFHPTNHAYIQSLLKRYQPHRVPSTCCAPVKTKPLSMLYVDNGRVLLDHHKDMIVEECGCL
concentration confirmed / usable / required in long-term assay (hiPSC): 100 ng/mL
